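Five compound concentrations were applied to cells in 96-well plates for 48 hours; endpoints were derived by simple linear interpolation of the resulting dose-response curve. Definition used: TGI = concentration required for complete inhibition of growth.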
Experiments:
Assay in all cases: DTP human tumour cell line panel, 48 h
EKVX NSCLC = test system: EKVX NSCLC
KM12 colon = test system: KM12 colon
M14 melanoma = test system: M14 melanoma
MDA-MB-435 = test system: MDA-MB-435
MOLT-4 leukemia = test system: MOLT-4 leukemia
NCI-H226 lung = test system: NCI-H226 lung
NCI-H460 lung = test system: NCI-H460 lung
NCI/ADR-RES ovarian = test system: NCI/ADR-RES ovarian
SF-539 CNS = test system: SF-539 CNS
SK-MEL-28 melanoma = test system: SK-MEL-28 melanoma
SR leukemia = test system: SR leukemia
U251 CNS = test system: U251 CNS

Compound | TGI (EKVX NSCLC) | TGI (KM12 colon) | TGI (M14 melanoma) | TGI (MDA-MB-435) | TGI (MOLT-4 leukemia) | TGI (NCI-H226 lung) | TGI (NCI-H460 lung) | TGI (NCI/ADR-RES ovarian) | TGI (SF-539 CNS) | TGI (SK-MEL-28 melanoma) | TGI (SR leukemia) | TGI (U251 CNS)
CCOC(=O)c1cnc2[nH]ccn2c1=O | > 10 µM | > 10 µM | > 10 µM | > 10 µM | > 10 µM | > 10 µM | > 10 µM | > 10 µM | > 10 µM | > 10 µM | > 10 µM | > 10 µM
CN(C)c1ccc(/C(Br)=C2\OC(=O)c3ccccc32)cc1 | > 100 µM | > 100 µM | > 100 µM | > 100 µM | > 100 µM | > 100 µM | > 100 µM | > 100 µM | > 100 µM | > 100 µM | > 100 µM | > 100 µM
C=CC/C(C(=O)OC)=C(/C(=O)OC)N(CCC)CCC | > 100 µM | > 100 µM | > 100 µM | > 100 µM | > 100 µM | > 100 µM | > 100 µM | > 100 µM | > 100 µM | > 100 µM | 55.3 µM | > 100 µM
N#CC(C#N)=C1CCCS(=O)(=O)c2ccccc21 | > 100 µM | > 100 µM | > 100 µM | > 100 µM | > 100 µM | > 100 µM | > 100 µM | > 100 µM | > 100 µM | > 100 µM | > 100 µM | > 100 µM
c1ccc2c(c1)CCCN1CCc3ccccc3C21 (stereo not given) | > 100 µM | > 100 µM | > 100 µM | 56.4 µM | > 100 µM | > 100 µM | > 100 µM | > 100 µM | 46.5 µM | > 100 µM | > 100 µM | > 100 µM
Cc1cc(C)c2c(n1)S(=O)(=O)N(CCCN1CCN(c3cccc(C(F)(F)F)c3)CC1)/C(=C(\O)c1ccc(Cl)cc1)C2=O | 10.7 µM | 14.6 µM | 18.1 µM | 15 µM | 4 µM | 8.61 µM | 11 µM | 16.4 µM | 17.1 µM | 29.8 µM | > 100 µM | 14.3 µM
CC1=CC(=O)N(n2c(C)n[nH]c2=O)C1=O | > 100 µM | > 100 µM | > 100 µM | > 100 µM | > 100 µM | > 100 µM | > 100 µM | > 100 µM | > 100 µM | – | > 100 µM | > 100 µM
O=c1c2cc(I)ccc2[nH]c(=S)n1Cc1ccccc1 | 35.4 µM | > 100 µM | > 100 µM | > 100 µM | > 100 µM | > 100 µM | > 100 µM | > 100 µM | 33.4 µM | > 100 µM | > 100 µM | > 100 µM
N#Cc1c2c(c(Nc3ccc(F)cc3)n3c1nc1ccccc13)CCC2 | 26 µM | 23.7 µM | 18.4 µM | 11 µM | > 100 µM | 22.7 µM | 23 µM | 25 µM | 9.56 µM | 23.7 µM | > 100 µM | 8.01 µM
O=c1nc2c(c(-c3cccc(Cl)c3)[nH]1)COC/C2=C\c1cccc(Cl)c1 | > 100 µM | > 100 µM | > 100 µM | > 100 µM | > 100 µM | > 100 µM | > 100 µM | > 100 µM | > 100 µM | – | > 100 µM | > 100 µM
O=[N+]([O-])C(=C(Sc1ccccc1)Sc1ccccc1)C(Cl)=C(Cl)Cl | 5.15 µM | 7.03 µM | 1.17 µM | 1.3 µM | 0.216 µM | 1.31 µM | 16.6 µM | 1.9 µM | 5.81 µM | 1.09 µM | 0.564 µM | 4.21 µM
O=C1/C(=C/c2ccc([N+](=O)[O-])cc2)CNC/C1=C\c1ccc([N+](=O)[O-])cc1 | 33.9 µM | 4.41 µM | 28.7 µM | 23.9 µM | > 38 µM | > 57.5 µM | 12.7 µM | 26.3 µM | 5.59 µM | 5.49 µM | 1.15 µM | 1.67 µM
Cc1nc2ccc([N+](=O)[O-])cc2c(=O)n1C(=S)Nc1cccc(Cl)c1 | > 100 µM | 32.2 µM | 53.6 µM | 41.2 µM | > 100 µM | 44 µM | 52.6 µM | 89.7 µM | 43.1 µM | 40.6 µM | > 100 µM | 66.9 µM
C(=Nc1ccc(-c2nc3ccccc3s2)cc1)c1ccco1 | > 100 µM | > 100 µM | > 100 µM | > 100 µM | > 100 µM | > 100 µM | > 100 µM | > 100 µM | > 100 µM | > 100 µM | > 100 µM | > 100 µM
O=C1OC[C@@H]2Cc3c([nH]c4ccccc34)[C@@H](c3ccc(O)cc3)N12 | > 100 µM | 53.1 µM | 54.7 µM | 68.2 µM | > 75.3 µM | 80.1 µM | 81.4 µM | > 100 µM | > 74 µM | > 100 µM | > 87.4 µM | > 100 µM
CCOC(=O)C1C(=O)CC(O)(c2ccccc2)C(C(=O)OCC)C1c1ccc(OC)cc1 (stereo not given) | > 100 µM | 39.8 µM | 82.9 µM | 11.4 µM | > 82 µM | > 100 µM | > 100 µM | > 55.9 µM | 40.9 µM | > 100 µM | 32.5 µM | > 76.8 µM

From PubChem BioAssay (NCI)
